According to ChEMBL document CHEMBL2346571 (Bioorg Med Chem, 2013):
Active and inactive are the calls of the source. The rule behind the calls is not given here.

What was measured:
Cannabinoid receptor 1 = Cannabinoid receptor 1 (Homo sapiens, UniProt P21554); experiment: Displacement of [3H]-CP55940 from human CB1 receptor after 90 mins by liquid scintillation spectrophotometer analysis
Cannabinoid receptor 2 = Cannabinoid receptor 2 (Homo sapiens, UniProt P34972); experiment: Displacement of [3H]-CP55940 from human CB2 receptor after 90 mins by liquid scintillation spectrophotometer analysis
Sequence of Cannabinoid receptor 2 (P34972 whole entry): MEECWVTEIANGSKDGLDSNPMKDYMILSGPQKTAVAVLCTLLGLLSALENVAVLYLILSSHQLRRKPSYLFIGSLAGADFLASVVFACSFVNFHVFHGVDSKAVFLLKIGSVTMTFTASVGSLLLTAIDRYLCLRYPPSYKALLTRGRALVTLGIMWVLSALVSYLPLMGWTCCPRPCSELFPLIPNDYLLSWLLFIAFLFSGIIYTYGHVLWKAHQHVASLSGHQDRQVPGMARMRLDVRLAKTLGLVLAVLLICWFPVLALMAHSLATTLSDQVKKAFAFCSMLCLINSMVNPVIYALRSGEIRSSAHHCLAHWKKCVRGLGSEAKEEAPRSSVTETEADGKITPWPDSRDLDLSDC

Rattus norvegicus [1] = experiment: Antiobesity activity in Wistar rat assessed as reduction of food intake at 3 mg/kg, ip after 30 to 240 mins; assay type: functional, organism-based; design: dose 3 mg/kg
Rattus norvegicus [2] = experiment: Antiobesity activity in Wistar rat assessed as reduction of food intake at 3 mg/kg, ip after 30 mins; assay type: functional, organism-based; design: dose 3 mg/kg
Rattus norvegicus [3] = experiment: Antiobesity activity in Wistar rat assessed as reduction of food intake at 3 mg/kg, ip after 60 to 240 mins; assay type: functional, organism-based; design: dose 3 mg/kg
Rattus norvegicus [4] = experiment: Increase of food intake in Wistar rat at 3 mg/kg, ip after 30 to 240 mins; assay type: functional, organism-based; design: dose 3 mg/kg
Rattus norvegicus [5] = experiment: Antiobesity activity in Wistar rat assessed as reduction of food intake at 3 mg/kg, ip; assay type: functional, organism-based; design: dose 3 mg/kg

Sequence of Cannabinoid receptor 1 (P21554 whole entry): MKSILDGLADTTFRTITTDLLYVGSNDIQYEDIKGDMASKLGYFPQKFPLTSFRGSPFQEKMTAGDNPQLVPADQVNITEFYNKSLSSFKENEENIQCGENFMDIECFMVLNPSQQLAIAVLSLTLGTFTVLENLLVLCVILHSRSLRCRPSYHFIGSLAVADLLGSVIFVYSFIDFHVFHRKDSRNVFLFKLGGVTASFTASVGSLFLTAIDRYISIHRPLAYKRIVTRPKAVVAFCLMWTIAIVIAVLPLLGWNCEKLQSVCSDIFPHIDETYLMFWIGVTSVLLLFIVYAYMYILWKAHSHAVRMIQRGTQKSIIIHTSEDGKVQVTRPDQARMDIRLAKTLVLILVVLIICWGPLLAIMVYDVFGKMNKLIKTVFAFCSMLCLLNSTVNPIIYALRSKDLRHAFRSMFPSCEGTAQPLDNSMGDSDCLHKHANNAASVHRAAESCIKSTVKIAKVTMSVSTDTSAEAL

Compound | Ki (Cannabinoid receptor 1) | Ki (Cannabinoid receptor 2) | Activity (Rattus norvegicus [1]) | Activity (Rattus norvegicus [2]) | Activity (Rattus norvegicus [3]) | Activity (Rattus norvegicus [4]) | Activity (Rattus norvegicus [5])
CCCCCCCCCCCCCCCCNC(=O)c1nc(-c2ccc(Cl)cc2)n(-c2ccc(Cl)cc2)n1 | > 10 µM | > 10 µM | Active | – | – | – | –
CCCCCc1cc(-c2ccccc2)n(-c2ccccc2)n1 | 6.16 µM | 2.94 µM | – | – | – | – | –
CCCCCCCC/C=C\CCCCCCCCNC(=O)c1cc(-c2ccccc2)n(-c2ccccc2)n1 | > 40 µM | > 40 µM | inactive | – | – | – | –
CCCCCCc1cc(-c2ccc(Cl)cc2)n(-c2ccc(Cl)cc2Cl)n1 | > 40 µM | > 40 µM | – | – | – | – | –
CCCCCCCCCCCCCCCCNC(=O)c1cc(-c2ccccc2)n(-c2ccccc2)n1 | > 40 µM | > 10 µM | Active | – | – | – | –
O=C(NN1CCCCC1)c1cc(-c2ccccc2)n(-c2ccccc2)n1 | 4.59 µM | 27.9 µM | – | inactive | Active | – | –
CCCCCCCC/C=C\CCCCCCCCNC(=O)c1nn(-c2ccccc2)c(-c2ccccc2)c1C | > 40 µM | > 40 µM | inactive | – | – | – | –
CCCCCCCC/C=C\CCCCCCCCNC(=O)c1nc(-c2ccc(Cl)cc2)n(-c2ccc(Cl)cc2)n1 | > 40 µM | > 40 µM | inactive | – | – | – | –
Cc1c(C(=O)NN2CCCCC2)nn(-c2ccccc2)c1-c1ccccc1 | 9.69 µM | 18.2 µM | – | – | – | Active | –
CCCCCCc1nc(-c2ccc(Cl)cc2)n(-c2ccc(Cl)cc2Cl)n1 | 0.829 µM | 3.08 µM | – | – | – | – | –
CCCCCCCCCCCCCCCCNC(=O)c1nn(-c2ccccc2)c(-c2ccccc2)c1C | > 10 µM | > 10 µM | Active | – | – | – | –
CCCCCc1cc(-c2ccc(Cl)cc2)n(-c2ccc(Cl)cc2Cl)n1 | > 40 µM | 0.458 µM | – | – | – | – | Active
